Measurements as given in ChEMBL document CHEMBL1201862, “PubChem BioAssay data set” (2004).
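Briefly, cells in 96-well plates were exposed to five compound concentrations for 48 h, and endpoints were estimated by linear interpolation. The concentration for 50% growth inhibition is given as GI50.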 The source made the active and inactive calls. No stated cut-off is given here; in the data, active = GI50 up to about 1.1 µM and inactive = higher.

Legend:
Experiment in all cases: NCI tumour cell line growth inhibition, 48 h
SNB-19 = tested on: SNB-19
OVCAR-5 = tested on: OVCAR-5
TK-10 = tested on: TK-10
OVCAR-8 = tested on: OVCAR-8
MDA-N = tested on: MDA-N
A549 = tested on: A549
K562 = tested on: K562
HCC 2998 = tested on: HCC 2998
M14 = tested on: M14
HL-60 = tested on: HL-60
MCF7 = tested on: MCF7
HCT-15 = tested on: HCT-15
SR = tested on: SR
NCI-H522 = tested on: NCI-H522
U-251 = tested on: U-251
NCI/ADR-RES = tested on: NCI/ADR-RES
MDA-MB-435 = tested on: MDA-MB-435
HOP-62 = tested on: HOP-62
HT-29 = tested on: HT-29
UO-31 = tested on: UO-31

Compound | GI50 (SNB-19) | GI50 (OVCAR-5) | GI50 (TK-10) | GI50 (OVCAR-8) | GI50 (MDA-N) | GI50 (A549) | GI50 (K562) | GI50 (HCC 2998) | GI50 (M14) | GI50 (HL-60) | GI50 (MCF7) | GI50 (HCT-15) [µM] | GI50 (SR) | GI50 (NCI-H522) | GI50 (U-251) | GI50 (NCI/ADR-RES) | GI50 (MDA-MB-435) | GI50 (HOP-62) | GI50 (HT-29) | GI50 (UO-31)
Brc1c(C#CCC2CCCCC2)ccc(C#CCC2CCCCC2)c1Br | > 100 µM (inactive) | > 100 µM (inactive) | > 100 µM (inactive) | > 100 µM (inactive) | > 100 µM (inactive) | > 100 µM (inactive) | > 100 µM (inactive) | > 100 µM (inactive) | > 100 µM (inactive) | > 100 µM (inactive) | > 100 µM (inactive) | > 100 | > 100 µM (inactive) | > 100 µM (inactive) | > 100 µM (inactive) | > 100 µM (inactive) | > 100 µM (inactive) | – | – | –
CC(=O)n1[nH]c(=O)n(-c2ccccc2)c1=O | > 100 µM (inactive) | > 100 µM (inactive) | > 100 µM (inactive) | > 100 µM (inactive) | > 100 µM (inactive) | > 100 µM (inactive) | > 100 µM (inactive) | > 100 µM (inactive) | > 100 µM (inactive) | > 100 µM (inactive) | > 100 µM (inactive) | > 100 | > 100 µM (inactive) | > 100 µM (inactive) | > 100 µM (inactive) | > 100 µM (inactive) | > 100 µM (inactive) | > 100 µM (inactive) | > 100 µM (inactive) | > 100 µM (inactive)
O=C(Nc1ccccc1)c1cc2c(cc1Cl)Sc1nccn1S2(=O)=O | > 100 µM (inactive) | 27.2 µM (inactive) | 34.5 µM (inactive) | 58.2 µM (inactive) | 23.5 µM (inactive) | 36.4 µM (inactive) | 28.2 µM (inactive) | 18.5 µM (inactive) | 16 µM (inactive) | 15.8 µM (inactive) | 12.6 µM (inactive) | 19.1 | 14.8 µM (inactive) | 21 µM (inactive) | 25.5 µM (inactive) | 41.8 µM (inactive) | 14.8 µM (inactive) | 16 µM (inactive) | 21.9 µM (inactive) | 34 µM (inactive)
Fc1ccc(/C=C2\COCC3=C2NC(=S)NC3c2ccc(F)cc2)cc1 (stereo not given) | 23.6 µM (inactive) | 21.1 µM (inactive) | 22.1 µM (inactive) | 15.2 µM (inactive) | 17.6 µM (inactive) | – | 19 µM (inactive) | 18.5 µM (inactive) | 16.4 µM (inactive) | 10.5 µM (inactive) | 19.1 µM (inactive) | 15.7 | 19 µM (inactive) | 16.4 µM (inactive) | 20.5 µM (inactive) | 19.1 µM (inactive) | 18.8 µM (inactive) | 17.6 µM (inactive) | – | 17.7 µM (inactive)
CC(C)(C)c1cc2c(O)c(c1)C(c1ccccc1)c1cc(C(C)(C)C)cc(c1O)Cc1cc(C(C)(C)C)cc(c1O)C(c1ccccc1)c1cc(C(C)(C)C)cc(c1O)C2 (stereo not given) | > 100 µM (inactive) | > 100 µM (inactive) | > 100 µM (inactive) | > 100 µM (inactive) | > 100 µM (inactive) | > 100 µM (inactive) | > 100 µM (inactive) | > 100 µM (inactive) | > 100 µM (inactive) | 28.7 µM (inactive) | > 100 µM (inactive) | > 100 | 62.7 µM (inactive) | > 100 µM (inactive) | > 100 µM (inactive) | > 100 µM (inactive) | > 100 µM (inactive) | > 100 µM (inactive) | > 100 µM (inactive) | > 100 µM (inactive)
CCOC(=O)c1nc2cc(C(F)(F)F)ccc2nc1Nc1cc(OC)c(OC)c(OC)c1 | > 100 µM (inactive) | > 100 µM (inactive) | > 100 µM (inactive) | > 100 µM (inactive) | > 100 µM (inactive) | > 100 µM (inactive) | > 100 µM (inactive) | > 100 µM (inactive) | > 100 µM (inactive) | > 100 µM (inactive) | > 100 µM (inactive) | > 100 | > 100 µM (inactive) | > 100 µM (inactive) | > 100 µM (inactive) | > 100 µM (inactive) | > 100 µM (inactive) | > 100 µM (inactive) | > 100 µM (inactive) | > 100 µM (inactive)
Cc1ccc(S(=O)(=O)NNCNC(=O)c2ccccc2)cc1 | > 100 µM (inactive) | > 100 µM (inactive) | > 100 µM (inactive) | > 100 µM (inactive) | 33.9 µM (inactive) | > 100 µM (inactive) | 64.4 µM (inactive) | > 100 µM (inactive) | > 100 µM (inactive) | 16.4 µM (inactive) | > 100 µM (inactive) | 70.8 | 2.29 µM (inactive) | > 100 µM (inactive) | > 100 µM (inactive) | 54.6 µM (inactive) | 32.4 µM (inactive) | > 100 µM (inactive) | 61.2 µM (inactive) | 82.8 µM (inactive)
